Seven compounds from patent US6756208B2, “Plasma glucosylceramide deficiency as risk factor for thrombosis and modulator of anticoagulant protein C” (priority 2001, dated 2004) can be followed below.

“Also recorded” adds a separate entry of the source.

Assay [1] concerns APC:protein S. As to the kind of experiment: Modified dilute prothrombin time clotting assay with glycolipid vesicles added to normal plasma. In kind it is biochemical, human. Particulars: for effect on APC:protein S anticoagulant response: 0-100 mg/ml; for anticoagulant response of plasma to APC:protein S (clotting time prolongation, modified PT assay): glycolipid vesicles added to normal plasma, APC plus protein S present; for effect on baseline clotting times: without APC or protein S added. As to the method: Anticoagulant response to APC:protein S. Modified dilute prothrombin time based assays were performed as previously described. Briefly, 7.5 μl of test plasma was mixed with fibrinogen (0.6 mg/ml final concentration) and APC (8.7 nM final) plus protein S (28 nM final) or buffer, and incubated 3 min at 37° C. (100 μl total volume). Clotting times were measured after addition of 50 μl of recombinant human tissue factor (Innovin from DADE, Miami, Fla.) diluted 1:40 in Tris (tris[hydroxymethyl] aminomethane)-buffered saline containing 0.5% bovine serum albumin (TBSA) and 30 mM CaCl2. Baseline clotting times without addition of APC:protein S were also determined. For studies of the effects of glycolipid vesicles or glucocerebrosidase treatment on clotting assays, a 1:64 dilution of Innovin was used in the presence or absence of APC and protein S. In the study of the effect of glucocerebrosidase, 13 nM APC and 42 nM protein S were employed.
Preparation of glycolipid vesicles. To prepare extruded glycolipid vesicles, dried glycolipids GlcCer, Gb3Cer, galactosylceramide (GalCer) (Sigma), and LacCer were suspended at 100 μg/ml in TBS at room temperature, vortexed 5 min, and passed through a 0.2 μm filter (Osmonics, Livermore, Calif.). Concentrations of glycolipids recovered after filtration were determined by HPLC analysis as described above.

Assay [2] addresses T1, factor Va (Homo sapiens, UniProt P12259).
T1 construct: APC cleaves the heavy chain of factor Va at Arg506, and then Arg306, and perhaps Arg679
T1 sequence (P12259 29-737 limits assumed): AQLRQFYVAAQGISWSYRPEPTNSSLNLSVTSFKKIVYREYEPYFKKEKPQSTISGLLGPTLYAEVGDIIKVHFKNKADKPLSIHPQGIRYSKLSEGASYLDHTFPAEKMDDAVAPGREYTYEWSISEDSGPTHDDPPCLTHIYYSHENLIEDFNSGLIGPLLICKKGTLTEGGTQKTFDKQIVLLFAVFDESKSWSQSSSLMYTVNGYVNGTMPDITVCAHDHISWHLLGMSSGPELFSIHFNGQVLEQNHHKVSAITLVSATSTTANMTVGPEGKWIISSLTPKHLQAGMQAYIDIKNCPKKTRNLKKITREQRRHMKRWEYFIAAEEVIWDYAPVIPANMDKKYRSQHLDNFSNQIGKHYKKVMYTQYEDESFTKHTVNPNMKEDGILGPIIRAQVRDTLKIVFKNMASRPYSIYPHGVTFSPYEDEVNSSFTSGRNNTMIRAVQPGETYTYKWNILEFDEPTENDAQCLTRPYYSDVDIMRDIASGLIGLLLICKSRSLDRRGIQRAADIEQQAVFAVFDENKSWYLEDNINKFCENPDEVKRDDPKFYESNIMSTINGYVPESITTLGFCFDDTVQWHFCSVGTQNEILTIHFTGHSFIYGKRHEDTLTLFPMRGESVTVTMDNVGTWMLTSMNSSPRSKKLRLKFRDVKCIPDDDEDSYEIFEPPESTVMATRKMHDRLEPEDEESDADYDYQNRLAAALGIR
T1 sequence (P12259 1574-2224 limits assumed): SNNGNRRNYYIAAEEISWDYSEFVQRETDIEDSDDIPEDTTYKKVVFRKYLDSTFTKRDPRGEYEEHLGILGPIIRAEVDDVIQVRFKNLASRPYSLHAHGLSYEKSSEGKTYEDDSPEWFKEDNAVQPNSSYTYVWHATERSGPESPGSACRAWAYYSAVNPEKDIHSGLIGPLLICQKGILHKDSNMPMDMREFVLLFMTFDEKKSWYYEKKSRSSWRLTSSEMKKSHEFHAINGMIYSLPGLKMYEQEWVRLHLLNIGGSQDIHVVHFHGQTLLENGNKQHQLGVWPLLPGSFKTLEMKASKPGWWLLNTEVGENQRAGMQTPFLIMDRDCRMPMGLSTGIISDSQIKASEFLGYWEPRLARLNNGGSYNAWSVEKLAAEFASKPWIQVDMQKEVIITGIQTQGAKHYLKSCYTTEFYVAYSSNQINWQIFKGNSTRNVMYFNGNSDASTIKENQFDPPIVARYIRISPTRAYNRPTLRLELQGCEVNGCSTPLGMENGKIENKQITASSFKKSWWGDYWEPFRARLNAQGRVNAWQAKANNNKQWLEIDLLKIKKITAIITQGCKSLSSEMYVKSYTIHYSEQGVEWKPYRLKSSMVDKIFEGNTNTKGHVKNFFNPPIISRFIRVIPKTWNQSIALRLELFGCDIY
The experiment in a line: Factor Va inactivation by APC/protein S with 1, 5 or 10% glycolipid in PC/PS vesicles (Example 7). Type of assay: biochemical. Particulars: for enhancement of factor Va inactivation by APC/protein S: APC 0.16 nM, 5 min; for effect on factor Va inactivation by APC:protein S, glycolipid incorporated into PC/PS vesicles (overall statement): glycolipid content not specified. As to the method:
FIGS. 6A-6E. Anticoagulant response of plasma to APC/protein S is enhanced by addition of glycolipids. Purified factor Va (1.5 nM) was incubated with APC (0.16 nM final)/protein S (18 nM final) and varying lipid vesicles to allow factor Va inactivation for five minutes and then the residual factor Va activity was determined using prothrombin time clotting assays.
Purified factor Va (1.5 nM) was incubated with APC (0.16 nM final)/protein S (18 nM final) and varying lipids vesicles to allow factor Va inactivation for 5 min., and then the residual factor Va activity was determined using prothrombin time clotting assays.

In assay [3] the test system is APC:protein S. The experiment in a line: Factor Xa-1-stage clotting assays without addition of exogenous lipids. Type of assay: biochemical. Particulars: presence versus absence of APC:protein S; data not shown.
Assay [4] addresses T1, factor Va. The experiment in a line: Factor Va inactivation assay with purified proteins (GlcCer vesicles and multicomponent PC/PS/GlcCer vesicles). Type of assay: biochemical. As for the experimental part:
Large unilamellar multicomponent vesicles were prepared generally as described. (27) Appropriate aliquots of PC, PS and GlcCer were mixed and dried under nitrogen. The lipid mixture was hydrated at a concentration of 6.25 mM lipid in TBS and freeze-thawed 10 times using liquid nitrogen, and the solution of vesicles was passed 15 times through a 0.2 μm filter (Millipore). Concentrations of glycolipid recovered after filtration were determined by HPLC analysis as described above. PC concentration was determined by an enzymatic […] method (Phospholipids B kit, Wako Chemical USA, Inc., Richmond, Va.).
Factor Va inactivation assay. To study the time course of factor Va inactivation by APC:protein S, mixtures containing GlcCer vesicles or control PC vesicles (21.5 μM) or buffer, APC (6 nM final), protein S (18 nM final), and factor Va (1.5 nM) with 5 mM CaCl2 were incubated at 37° C. Aliquots were withdrawn at various times and the reaction was quenched by adding ethylenediamine tetraacetic acid (EDTA) prior to determination of residual factor Va activity. […] The residual factor Va activity was quantitated using prothrombin time clotting assays and standard log-log calibration curves of clotting time versus factor Va concentration generated using purified factor Va and factor V deficient plasma. […]

The mark [5] stands for this setting: 1% glycolipid in PC/PS vesicles.
The mark [6] stands for this setting: 10% glycolipid in PC/PS vesicles.
Setting [7] is: 5% glycolipid in PC/PS vesicles.

For `OC[C@H]1OC(O)[C@H](O)[C@@H](O)[C@@H]1O` (stereo partly drawn) [D-Glc, reference compound], in the assay with APC:protein S [1] (data not shown), the “effect on APC:protein S anticoagulant response” value is listed as “Neither D-Glc alone nor ceramide alone (0-100 mg/ml) affected”. Besides, the “anticoagulant response of plasma to APC:protein S (clotting time prolongation, modified PT assay)” value (shortened to “anticoagulant response of plasma”) in the assay with APC:protein S [1] is on record as “neither D-Glc alone nor ceramide alone was anticoagulantly active”.

With lactosylceramide [LacCer], the “enhancement of factor Va inactivation by APC/protein S” value (from here on “enhancement … by APC/protein S”) on factor Va [2] (setting [5]) was “little like GlcCer”. At factor Va [2] (setting [6]), the “factor Va inactivation reached” value is reported as “up to 90%” and the “enhancement … by APC/protein S” value was “dramatically enhanced factor Va inactivation”. In addition, the “effect on factor Va inactivation by APC:protein S, glycolipid incorporated into PC/PS vesicles (overall statement)” value (“effect … (overall statement)” below) on factor Va [2] is given as “significantly directly enhance inactivation”. For the same compound, the “anticoagulant response of plasma” value in the assay with APC:protein S [1] was “much lower activity; also recorded: does not possess this anticoagulant property”.

Turning to ceramide [reference compound], the “effect on APC:protein S anticoagulant response” value in the assay on APC:protein S [1] (data not shown) is on record as “Neither D-Glc alone nor ceramide alone (0-100 mg/ml) affected”. Moreover, the “anticoagulant response of plasma” value with APC:protein S [1] is given as “neither D-Glc alone nor ceramide alone was anticoagulantly active”.

In the case of glucosylceramide [GlcCer], the “clotting time prolongation in factor Xa-1-stage assays” value with APC:protein S [3] was “clotting time prolongation in the presence but not absence of APC:protein S”. Also, the “enhancement … by APC/protein S” value on factor Va [2] (setting [5]) was “little enhancement effect”. On factor Va [2] (setting [7]), the “factor Va inactivation reached” value was “up to 60%” and the “enhancement … by APC/protein S” value is “enhanced inactivation of factor Va much more”. Moreover, at factor Va [2] (5 and 10% GlcCer in PC/PS vesicle), the “concentration from which the enhancement effect was observed” value was ≥ 1 µg/mL. At factor Va [2] (setting [6]), the “factor Va inactivation reached” value is given as “up to 60%” and the “enhancement … by APC/protein S” value is recorded as “enhanced inactivation of factor Va much more”. The “effect … (overall statement)” value on factor Va [2] is recorded as “significantly directly enhance inactivation”. Moreover, the “clotting time prolongation, modified PT assay” value in the assay on APC:protein S [1] (APC alone added without protein S) is “much less clotting time prolongation”. In the assay with APC:protein S [1], the “anticoagulant response of plasma” value is given as “dose-dependent marked prolongation; also recorded: dose-dependently enhances the anticoagulant response; also recorded: dose-dependently enhanced this anticoagulant response; also recorded: very active” and the “effect on baseline clotting times” value was “without affecting baseline clotting time”. Also, the “effect on clotting times, modified PT assay” value in the assay on APC:protein S [1] (protein S alone added in the absence of APC, data not shown) is recorded as “no effect on clotting times”. The “inactivation of purified factor Va by APC:protein S (overall statement)” value at factor Va [4] was “directly enhanced inactivation of purified factor Va; also recorded: enhances factor Va inactivation”.

Turning to globotetraosylceramide [Gb4Cer], on factor Va [2], the “effect … (overall statement)” value is recorded as “much weaker effect”.

For the compound globotriaosylceramide [Gb3Cer], the “enhancement … by APC/protein S” value on factor Va [2] (setting [5]) was “enhanced inactivation of factor Va significantly even at 1 μg/ml”; at factor Va [2] (setting [7]) it was “enhanced much more”. The “effect … (overall statement)” value on factor Va [2] is reported as “significantly directly enhance inactivation”. For the same compound, the “anticoagulant response of plasma” value in the assay with APC:protein S [1] was “activity very similar to GlcCer; also recorded: approximately equally active; also recorded: enhanced”.

Turning to galactosylceramide [GalCer], the “enhancement of factor Va inactivation” value at factor Va [2] (above 10 μg/ml of total lipid, 5 and 10% glycolipid in PC/PS vesicles) was “enhanced factor Va inactivation by APC/protein C like GlcCer in PC/PS vesicle”. Moreover, at factor Va [2] (below 10 μg/ml), the “effect on factor Va inactivation compared with GlcCer in PC/PS” value is listed as “not as well as GlcCer in PC/PS”. Besides, on factor Va [2], the “effect … (overall statement)” value is “significantly directly enhance inactivation”. For the same compound, in the assay with APC:protein S [1], the “anticoagulant response of plasma” value is “did not enhance APC:protein S action; also recorded: inactive” and the “effect on baseline clotting times” value is “no effect on baseline clotting times”.
